Publication PMC8772772, “Enantioselective Synthesis and Pharmacological Evaluation of Aza-CGP37157–Lipoic Acid Hybrids for the Treatment of Alzheimer’s Disease” (Antioxidants, 2022)
Like-named read-outs stand apart in the source and are kept apart here. Each block holds one compound with its values, some of them ahead of it.

Experiments:
SH-SY5Y cell line = test system: SH-SY5Y cell line; parameters: method as in PMID 21989390; conditions: at the concentrations tested; cited from earlier work
NRF2 [1] = test: NRF2 induction, luciferase expression in AREc32 cell line; assay type: cell-based; conditions: AREc32 cells, 0.3, 3, 10 and 30 μM (LA: 0.1–0.6 mM), 24 h; mean ± SEM
Experimental: AREc32 cell line was kindly shared by Professor Roland Wolf (University of Dundee, UK). AREc32 cells were maintained in DMEM/glutamax/high glucose (Gibco, 61965-06, Madrid, Spain), supplemented with 1% penicillin–streptomycin (10,000 units) (SigmaAldrich, P4333, Madrid, Spain), geneticin (0.8 mg/mL) (Gibco, 11811-031) and 10% FBS (Gibco, 10270106), at 37 °C in a 5% CO2 air atmosphere. Cells were used from passage 4 to 18, and mycoplasma contamination was tested every 4 weeks. AREc32 cells were seeded in 96-well white plates (2 × 10^4 cells/well) for 24 h. Thereafter, cells were treated with each compound (0.3, 3, 10 and 30 µM) in duplicate for 24 h. Non-treated cells were included as basal luciferase expression and tert-butylhydroquinone (TBHQ, 10 μM) as positive control in each plate. Luciferase expression was evaluated by using the Luciferase Assay System (Promega, E1483, Madrid, Spain) by luminescence in an Orion II microplate luminometer (Berthold, Germany). Luciferase activity increase was normalized to basal conditions considered as 1. CD values (concentration required to double the luciferase activity) were calculated from dose–response curves of luciferase fold induction vs. compound concentration, fitted by non-linear regression and data interpolated to value 2.
To evaluate the influence of both stereogenic centers in the NRF2 induction capacity of aza-CGP37157-LA hybrids, we used the AREc32 cell line model by analyzing luciferase expression upon treatment with NRF2 inducers. AREc32 cells were exposed to increasing concentrations of tested compounds 7a–d (0.3, […], 10 and 30 μM) during 24 h; thereafter, luciferase expression was evaluated by luminescent assay to calculate the corresponding CD value (concentration to double luciferase expression). […] TBHQ was included as a positive control, and CGP37157, S- and R-LA, rac-3a and (rac,R)-3b and precursors derivatives (R-6 and S-6) were included for comparative purposes. […] Once R-LA is reduced, it might activate the phase II antioxidant response by acting as pro-oxidant over key Cys residues at KEAP1 to generate the corresponding lipoyl-cystinyl disulphide.

BV2 microglial cells = test: Nitrite production reduction in LPS-stimulated BV2 microglial cells (Griess); assay type: cell-based, mouse; conditions: 24 h pretreatment 0.3, 3, 10, 30 μM, then compound + LPS 100 ng/mL 18 h, Griess
Experimental: BV2 microglial cells were seeded at 2 × 10^4 cells/well and treated with compounds at increasing concentrations during 24 h in complete culture media. Then, treatments were removed, and BV2 cells were co-incubated with compounds and LPS (100 ng/mL) (O127:B8, SigmaAldrich, L3129) for additional 18 h in culture media supplemented with 1% FBS. Each plate included non-treated cells as basal nitrite production. Thereafter, nitrite production was determined by using the modified Griess assay. In brief, samples (150 μL) were mixed with DAPSONE (75 μL) (SigmaAldrich, A74807) and NEDA (75 μL) (SigmaAldrich, 33461), and the mixture was incubated at room temperature for 5 min. Light absorption was measured at 550 nm in a microplate reader (SPECTROstar nano, BMG Labtech). Basal nitrite production was referred to as 100% of nitrite production, and all data were normalized to the basal condition. Concentration needed to reduce nitrite production to 50% was calculated from graphical representation of percentage of nitrite production vs. compound concentration, and data were fitted by non-linear regression and interpolated to 50%.
Chronic neuroinflammation is considered a key pathological event in the early stages of AD development. Among immune cells present at CNS, microglia is related to host defense and tissue repair. Nonetheless, chronic neuroinflammation induced by an adverse environment of protein aggregates and exacerbated OS induces a neurotoxic activity of microglia that, finally, leads to neuronal death. […] To this end, we selected the BV2 microglial cell model stimulated by lipopolysaccharide (LPS), a TLR4 agonist that activates the pro-inflammatory response. CGP37157, R- and S-LA; analogue compounds rac-3a and (rac,R)-3b; and precursor derivatives 6 were included with comparative and reference purposes. Microglial BV2 cells were treated with increasing concentrations of the corresponding compound (0.3, 3, 10 and 30 µM) for 24 h following a pre-incubation protocol. Thereafter, treatments were exchanged by a combination of the corresponding compound at desired concentration and LPS (100 ng/mL) during 18 h. At the end of this period, nitrite production was evaluated by the Griess method as an indirect measurement of iNOS enzyme expression and BV2 activation.

[2] = test system: mitochondrial lipoamide dehydrogenase; parameters: method as in PMID 8573188; conditions: cited from earlier work
[3] = Cytotoxicity in SH-SY5Y cell line (MTT); assay type: cell-based; conditions: human; SH-SY5Y, 10, 30 and 100 μM, 24 h, MTT; read-out: CC50
Experimental: SH-SY5Y human neuroblastoma cells were seeded in 96-well clear multi-well plates (6 × 10^4 cells/well). Cells were treated with increasing concentrations of compounds (10, 30 and 100 μM) for 24 h. Thereafter, viability was assessed by the MTT method. Cytotoxic concentration to observe 50% mortality (CC50) values for compounds were interpolated from dose–response curves represented as percentage of cell death vs. concentration of compound, fitted by non-linear regression and data interpolated to value 50.
(§1) The tetrazolium ring of MTT can be cleaved by active dehydrogenases to produce a formazan precipitate. At the end of the experiments, MTT (SigmaAldrich, M2003) stock solution was added to each well to achieve a final concentration of 0.5 mg/mL. Cells were incubated for 2 h. Thereafter, culture media was removed, and DMSO was added to each well to dissolve the formazan precipitate. Finally, absorbance was measured in a microplate reader (SPECTROstar nano, BMG Labtech) at 570 nm. Absorbance obtained in basal conditions was considered as 100% cell viability.
In order to evaluate the potential pharmacological profile of new compounds, we first tested the potential neurotoxicity in the neuroblastoma SHSY5Y cell line. Toxicity was evaluated at increasing concentrations (10, 30 and 100 μM), and toxicity was measured as MTT reduction capability. CC50 values were calculated by non-linear regression of curves % survival vs. concentration (Supplementary Materials Figure S2). CGP37157 and previously studied racemic derivatives rac-3a and (rac,R)-3b were included as reference compounds. As previously described, LA is a non-neurotoxic compound at the concentrations texted.

[4] = test system: SH-SY5Y neuroblastoma cells; test: Neuroprotection against rotenone/oligomycin A oxidative stress in SH-SY5Y cells (MTT); assay type: cell-based, human; conditions: compound 1 μM 24 h, then compound + R/O (30/10 μM) 24 h; for % Survival: basal = 100, R/O alone 53.4
Experimental: Human neuroblastoma SH-SY5Y cells were plated in 96-well clear multi-well plates (6 × 10^4 cells/well). The potential neuroprotective activity of compounds against OS was evaluated using the rotenone (30 μM) (SigmaAldrich, R8875) and oligomycin A (10 μM) (SigmaAldrich, 75351) (R/O) toxic mixture. Neuroprotection activity against Tau hyperphosphorylation was evaluated by using the okadaic acid (20 nM) model. Cells were pre-incubated with each compound (1 µM) for 24 h, and then treatments were removed and cells were incubated with compounds (1 µM) in the presence the corresponding toxic for additional 24 h. At the end of the experiments, viability was determined by the MTT method. Data were normalized from cell death induced by the toxic stimuli (considered as 100% cell death). Then, the protection percentages were calculated by subtracting from the death induced by toxic stimuli, the death in the presence of the compound.
as §1
Thus, we selected a pre-incubation protocol to evaluate their potential neuroprotective capacity based on the NRF2-induction activity and direct antioxidant effect. Compound pre-incubation would induce the expression of antioxidant enzymes regulated by the phase II antioxidant response, thus promoting cells’ survival. The co-incubation period would also evaluate their capacity to trap free radicals produced by intoxicated mitochondria. SH-SY5Y neuroblastoma cells were treated with compounds (1 µM) during 24 h, and then cells were co-incubated with the corresponding compound at the same concentration and the R/O combination (30/10 µM) for additional 24 h. Melatonin, a well-known antioxidant natural neurohormone, was included as a positive control (1 µM). Previously reported racemic derivatives (rac-3a and (rac,R)-3b) and their precursors ((±)-6, R-6 and S-6) were included for comparative purposes at the same concentration.

[5] = parameters: method as in PMID 31693218; conditions: cited from earlier work; for DPPH Scavenging at 100 µM, %: compound 100 µM; for DPPH Scavenging at 1mM, %: compound 1 mM
NRF2 [6] = conditions: AREc32 cells, cited from earlier work; for CD (concentration required to double the specific luciferase activity): 24 h, Table S1, ref [3] of the supplement; for CD (concentration to double luciferase expression): previous results
primary glial cultures = test system: primary glial cultures; parameters: method as in PMID 31693218; conditions: primary glial cultures stimulated by LPS; cited from earlier work

SMILES: O=C(O)CCCCC1CCSS1 (centres unmarked) [LA, lipoic acid]
- neurotoxicity (SH-SY5Y cell line): non-neurotoxic

- IC50 (BV2 microglial cells): > 30 µM
SMILES: O=C(O)CCCC[C@@H]1CCSS1 [(R) -Lipoic acid, (R)-Lipoic acid, reference compound]
- CD (concentration required to double the specific luciferase activity) (NRF2 [1]): > 600 µM
- rate of conversion to dihydrolipoic acid relative to S-LA [2]: 28 times

SMILES: O=C1CN(CCOC(=O)CCCC[C@@H]2CCSS2)C(c2ccccc2Cl)c2cc(Cl)ccc2N1 (mixture of isomers) [(rac,R)-3b]
- CC50 at 24 h [3]: 76.2 ± 4.8 µM
- % Protection [4]: 59.3%
- % Survival [4]: 72.9 ± 3.5%
- DPPH Scavenging at 100 µM, % [5]: 8.7 ± 5.1 [19] %
- DPPH Scavenging at 1mM, % [5]: 30.7 ± 3.9 [19] %
- CD (concentration required to double the specific luciferase activity) (NRF2 [6]): 9.8 ± 1.6 µM
- CD (concentration to double luciferase expression) (NRF2 [6]): 9.8 ± 1.6 µM
- reduction of nitrite production (primary glial cultures): not active

SMILES: O=C1CN(CCOC(=O)CCCCC2CCSS2)C(c2ccccc2Cl)c2cc(Cl)ccc2N1 (racemic) [rac-3a]
- CC50 at 24 h [3]: 97.1 ± 2.3 µM
- % Protection [4]: 52.1%
- % Survival [4]: 69.0 ± 5.6%
- DPPH Scavenging at 100 µM, % [5]: 15.1 ± 3.4 [19] %
- DPPH Scavenging at 1mM, % [5]: 37.4 ± 3.8 [19] %
- CD (concentration required to double the specific luciferase activity) (NRF2 [6]): 14.8 ± 1.6 µM
- CD (concentration to double luciferase expression) (NRF2 [6]): 14.8 ± 1.6 µM
- reduction of nitrite production (primary glial cultures): able to reduce nitrite production
